Results taken from article PMC8154574 (Journal of Medicinal Chemistry, 2021).

Assays:
hA2AAR [1] = target: T1, hA2AAR (Homo sapiens, UniProt P29274); conditions: label-free whole-cell assay, HEK293hA2AR
hA2AAR [2] = target: T1, hA2AAR; conditions: 1 μM; all adenosine receptor subtypes
[3] = patients with heart failure; cited from earlier work

T1 sequence (P29274 whole entry): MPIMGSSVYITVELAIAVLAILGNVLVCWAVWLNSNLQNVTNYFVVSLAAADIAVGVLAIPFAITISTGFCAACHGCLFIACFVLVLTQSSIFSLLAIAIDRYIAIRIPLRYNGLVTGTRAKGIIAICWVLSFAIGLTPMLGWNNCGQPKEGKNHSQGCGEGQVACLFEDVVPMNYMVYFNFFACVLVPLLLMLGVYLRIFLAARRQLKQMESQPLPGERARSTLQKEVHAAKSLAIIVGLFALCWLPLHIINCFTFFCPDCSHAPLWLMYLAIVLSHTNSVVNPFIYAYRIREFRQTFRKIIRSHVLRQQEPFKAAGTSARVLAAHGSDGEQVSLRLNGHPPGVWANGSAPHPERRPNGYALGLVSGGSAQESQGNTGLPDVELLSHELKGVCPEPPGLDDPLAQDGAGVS

functional behavior / intrinsic activity at hA2AAR (hA2AAR [1])	Compound	other results
inverse agonism	Nc1nc(SCc2ncc[nH]2)nc(-c2ccccc2)n1 [Compound 2, 4-(1H-Imidazol-2-yl)methylthio-6-phenyl-1,3,5-triazin-2-amine]	–
inverse agonist	N#Cc1c(SCc2ncc[nH]2)nc(N)nc1-c1ccccc1 [Compound 3, 4-((1H-Imidazol-2-yl)methylthio)-2-amino-6-phenylpyrimidine-5-carbonitrile]	–

More lines, now with the values behind:

Compound	functional behavior / intrinsic activity at hA2AAR (hA2AAR [1])	other results
Nc1cc(-c2ccccc2)cc(SCc2ncc[nH]2)n1 [Compound 5, 6-(((1H-Imidazol-2-yl)methyl)thio)-4-phenylpyridin-2-amine]	–	displacement of radioligand binding in preliminary single-concentration assays (hA2AAR [2]): no or negligible displacement
N#Cc1c(-c2ccccc2)cc(N)nc1SCc1ncc[nH]1 [Compound 6, 2-(((1H-Imidazol-2-yl)methyl)thio)-6-amino-4-phenylnicotinonitrile]	did not show any measurable degree of intrinsic activity	–
N#Cc1c(SCc2csc(-c3ccc(Cl)cc3)n2)nc(N2CCCC2)c(C#N)c1-c1ccc(OCCO)cc1 [neladenoson]	–	primary endpoint of phase 2b clinical trial [3]: failed to meet the primary endpoint
